Measured values as given in patent publication US9744148B2, “Kallikrein 7 inhibitors” (SIXERA PHARMA AB, priority 2014, dated 2017).

What follows are compounds tested against Active human KLK7 (SCCE) (Homo sapiens (Human), UniProt P49862) (assay: KLK7 Inhibitor Test). Details: substrate MeO-Suc-Arg-Pro-Tyr-pNA, pH 7.2, 37° C., absorbance at 405 nm.
Assay type: biochemical
Experimental: KLK7 Inhibitor Test Substrate:(MeO-Suc-[…]), acetate salt, Peptide international, lot #906841, previously named S-2586 Enzyme: […] Buffer: 10 mM NaPhospate, 0.5 M NaCl, pH 7.2 […] 10 μl of substance in DMSO was added to wells giving final concentrations of 20 μ[…], and 0.15625 μM. 40 μl of active KLK7 (SCCE) (diluted to 12.5 μg/ml in activity buffer) was added all wells except blank to which activity buffer was added. […] The mean value V of each sample was calculated (n=2 for the substances and n=4 for the control). From the values of V the % of total activity was calculated as (Vinhibitor/Vcontrol (no inhibitor))×100. Plotting and calculation was then done in originPro. % of total activity (y) was plotted vs. log [inhibitor] (log x) and a function of dose response y=A1+(A2-A1)/(1+10^((LOG(x0)-x)*p)) where A1=Bottom platue, A2=Top platue, x0=EC50 and p=Hill slope was fitted to the curve. […] The IC50 values were used to identify KLK7 inhibitors according to the invention.

Chain of Active human KLK7 (SCCE) (P49862 30-253): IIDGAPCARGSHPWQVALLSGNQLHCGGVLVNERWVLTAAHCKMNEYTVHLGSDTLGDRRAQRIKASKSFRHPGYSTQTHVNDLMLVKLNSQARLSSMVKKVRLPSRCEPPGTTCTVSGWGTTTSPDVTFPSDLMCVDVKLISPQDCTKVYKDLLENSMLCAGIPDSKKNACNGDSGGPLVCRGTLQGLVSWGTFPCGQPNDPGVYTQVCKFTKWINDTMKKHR

Compound	IC50 [µM]
Cc1cc(NC(=O)C(OC(=O)C(c2ccccc2)c2ccccc2)c2ccccc2)no1 (stereo not shown) [Compound 54, [2-[(5-methylisoxazol-3-yl)amino]-2-oxo-1-phenyl-ethyl] 2,2-diphenylacetate]	1.1
COc1ccc(CC(=O)OC(C(=O)Nc2ccc(F)cc2)c2ccccc2)cc1 (stereo not shown) [Compound 56]	1.17
COc1ccc(NC(=O)C(C)OC(=O)C(c2ccccc2)c2ccccc2)cc1 (stereo not shown) [Compound 57]	1.18
COc1ccc(NC(=O)COC(=O)C(NC(=O)c2ccccc2)c2ccccc2)cc1 (stereo not shown) [Compound 59, [2-(4-methoxyanilino)-2-oxo-ethyl] 2-benzamido-2-phenyl-acetate]	1.23
Cc1cc(NC(=O)COC(=O)C(NC(=O)c2ccccc2)c2ccccc2)no1 (stereo not shown) [Compound 60, [2-[(5-methylisoxazol-3-yl)amino]-2-oxo-ethyl] 2-benzamido-2-phenyl-acetate]	1.47
O=C(COC(=O)C(NC(=O)c1ccccc1)c1ccccc1)Nc1ccc(F)cc1 (stereo not shown) [Compound 61, [2-(4-fluoroanilino)-2-oxo-ethyl] 2-benzamido-2-phenyl-acetate]	1.51
O=C(COC(=O)C(NC(=O)c1ccccc1)c1ccccc1)Nc1ccccc1 (stereo not shown) [Compound 62, (2-anilino-2-oxo-ethyl) 2-benzamido-2-phenyl-acetate]	1.56
CC(OC(=O)C(c1ccccc1)c1ccccc1)C(=O)Nc1ccc(F)cc1 (stereo not shown) [Compound 63]	1.62
CCC(OC(=O)C(NC(=O)c1ccccc1)c1ccccc1)C(=O)Nc1ccc(OC)cc1 (stereo not shown) [Compound 64, 1-[(4-methoxyphenyl)carbamoyl]propyl 2-benzamido-2-phenyl-acetate]	1.7
CCC(OC(=O)C(NC(=O)c1ccccc1)c1ccccc1)C(=O)Nc1ccc(F)cc1 (stereo not shown) [Compound 65, 1-[(4-fluorophenyl)carbamoyl]propyl 2-benzamido-2-phenyl-acetate]	1.79
CC(OC(=O)C(NC(=O)c1ccccc1)c1ccccc1)C(=O)Nc1ccccc1 (stereo not shown) [Compound 66, (2-anilino-1-methyl-2-oxo-ethyl) 2-benzamido-2-phenyl-acetate]	1.85
COc1ccc(CC(=O)OCC(=O)Nc2ccc(F)cc2)cc1 [Compound 67]	2.28
COc1ccc(CC(=O)OCC(=O)Nc2ccc(OC)cc2)cc1 [Compound 68]	2.31
COc1ccc(NC(=O)C(C)OC(=O)C(NC(=O)c2ccccc2)c2ccccc2)cc1 (stereo not shown) [Compound 71, [2-(4-methoxyanilino)-1-methyl-2-oxo-ethyl] 2-benzamido-2-phenyl-acetate]	2.76
O=C(NC(C(=O)OC(C(=O)Nc1ccccc1)c1ccccc1)c1ccccc1)c1ccccc1 (stereo not shown) [Compound 76, (2-anilino-2-oxo-1-phenyl-ethyl) 2-benzamido-2-phenyl-acetate]	3.34
COc1ccc(CC(=O)OCC(=O)Nc2ccccc2)cc1 [Compound 77]	3.89
COc1ccc(NC(=O)C(OC(=O)C(c2ccccc2)c2ccccc2)c2ccccc2)cc1 (stereo not shown) [Compound 78, [2-(4-methoxyanilino)-2-oxo-1-phenyl-ethyl] 2,2-diphenylacetate]	4.33
Cc1cc(NC(=O)COC(=O)C(c2ccccc2)c2ccccc2)no1 [Compound 80]	4.7
CC(OC(=O)C(NC(=O)c1ccccc1)c1ccccc1)C(=O)NCc1ccccc1 (stereo not shown) [Compound 83, [2-(benzylamino)-1-methyl-2-oxo-ethyl] 2-benzamido-2-phenyl-acetate]	5.89
Cc1cc(NC(=O)COC(=O)C(c2ccccc2)c2ccccc2)no1 [Compound 86]	6.64
COc1ccc(NC(=O)COC(=O)C(c2ccccc2)c2ccccc2)cc1 [Compound 87]	7.39
O=C(COC(=O)C(c1ccccc1)c1ccccc1)Nc1ccc(F)cc1 [Compound 88]	8.49
O=C(COC(=O)C(c1ccccc1)c1ccccc1)Nc1ccccc1 [Compound 90]	11.2
CC(C)C(OC(=O)C(NC(=O)c1ccccc1)c1ccccc1)C(=O)Nc1ccccc1 (stereo not shown) [Compound 93, [2-methyl-1-(phenylcarbamoyl)propyl] 2-benzamido-2-phenyl-acetate]	2.3
COc1ccc(NC(=O)C(OC(=O)C(NC(=O)c2ccccc2)c2ccccc2)C(C)C)cc1 (stereo not shown) [Compound 95, [1-[(4-methoxyphenyl)carbamoyl]-2-methyl-propyl] 2-benzamido-2-phenyl-acetate]	6.3
CC(C)C(OC(=O)C(NC(=O)c1ccccc1)c1ccccc1)C(=O)Nc1ccc(F)cc1 (stereo not shown) [Compound 96, [1-[(4-fluorophenyl)carbamoyl]-2-methyl-propyl] 2-benzamido-2-phenyl-acetate]	3.7

Results, then the compound that gave them:

IC50 [µM]	Compound
1.11	O=C(COC(=O)CCC1CCCC1)Nc1ccccc1 [Compound 55]
1.2	Cc1cc(NC(=O)COC(=O)CCC2CCCC2)no1 [Compound 58]
2.7	Cc1cc(NC(=O)COC(=O)CCC2CCCC2)no1 [Compound 69]
2.7	Cc1cc(NC(=O)C(OC(=O)Cc2ccc(Cl)cc2)C(C)C)no1 (stereo not shown) [Compound 70, [2-methyl-1-[(5-methylisoxazol-3-yl)carbamoyl]propyl] 2-(4-chlorophenyl)acetate]
2.78	Cc1cc(NC(=O)C(OC(=O)CCC2CCCC2)C(C)C)no1 (stereo not shown) [Compound 72, [2-methyl-1-[(5-methylisoxazol-3-yl)carbamoyl]propyl] 3-cyclopentylpropanoate]
2.9	Cc1cc(NC(=O)COC(=O)Cc2ccc(Cl)cc2)no1 [Compound 73]
3.05	COc1ccc(CC(=O)OCC(=O)Nc2cc(C)on2)cc1 [Compound 74]
3.26	Cc1cc(NC(=O)C(OC(=O)C(NC(=O)c2ccccc2)c2ccccc2)C(C)C)no1 (stereo not shown) [Compound 75, [2-methyl-1-[(5-methylisoxazol-3-yl)carbamoyl]propyl] 2-benzamido-2-phenyl-acetate]
4.56	Cc1cc(NC(=O)C(OC(=O)C(c2ccccc2)c2ccccc2)C(C)C)no1 (stereo not shown) [Compound 79, [2-methyl-1-[(5-methylisoxazol-3-yl)carbamoyl]propyl] 2,2-diphenylacetate]
5	Cc1cc(NC(=O)COC(=O)Cc2ccc(Cl)cc2)no1 [Compound 81, [2-[(5-methylisoxazol-3-yl)amino]-2-oxo-ethyl] 2-(4-chlorophenyl)acetate]
5.5	CCC(OC(=O)C(CCSC)NC(=O)c1ccccc1)C(=O)Nc1cc(C)on1 (stereo not shown) [Compound 82]
6.25	COc1ccc(CC(=O)OC(C(=O)Nc2cc(C)on2)C(C)C)cc1 (stereo not shown) [Compound 84, [2-methyl-1-[(5-methylisoxazol-3-yl)carbamoyl]propyl] 2-(4-methoxyphenyl)acetate]
6.43	CCC(OC(=O)C(NC(=O)c1ccccc1)c1ccccc1)C(=O)Nc1cc(C)on1 (stereo not shown) [Compound 85]
9.1	CCC(OC(=O)C(CC(C)C)NC(=O)c1ccccc1)C(=O)Nc1cc(C)on1 (stereo not shown) [Compound 89]
4.1	CC(C)C(OC(=O)Cc1ccc(Cl)cc1)C(=O)Nc1ccccc1 (stereo not shown) [Compound 91, [2-methyl-1-(phenylcarbamoyl)propyl] 2-(4-chlorophenyl)acetate]
3.8	COc1ccc(NC(=O)C(OC(=O)Cc2ccc(Cl)cc2)C(C)C)cc1 (stereo not shown) [Compound 92, [1-[(4-methoxyphenyl)carbamoyl]-2-methyl-propyl] 2-(4-chlorophenyl)acetate]
3.6	COc1ccc(CC(=O)OC(C(=O)Nc2ccccc2)C(C)C)cc1 (stereo not shown) [Compound 94, [2-methyl-1-(phenylcarbamoyl)propyl] 2-(4-methoxyphenyl)acetate]
